The structures appear in SMILES notation. In brackets after ≈: the same amount, converted by molar mass.

The values that follow come from publication PMC6247689, “Determination of the volatile and polyphenol constituents and the antimicrobial, antioxidant, and tyrosinase inhibitory activities of the bioactive compounds from the by-product of Rosa rugosa Thunb. var. plena Regal tea” (BMC Complementary and Alternative Medicine, 2018).

Experiment [1] can be described thus: DPPH radical scavenging activity. As to conditions: 30 min in the dark, 517 nm; positive control = ascorbic acid. How it is done:
The antioxidant activity of RFCS and the standards were evaluated by DPPH radical scavenging activity using a slightly modified version of a previously reported method. […] Aliquots (100 μL) of the supernatants were transferred into a 96-well microplate, and the absorbance of each was recorded at 517 nm using a Spectramax Plus384 UV-Vis spectrophotometer (Molecular Devices, Sunnyvale, California, USA). […] The IC50 values, which represent the concentrations of rose samples and standard substance at which 50% of the DPPH radical was inhibited, were determined. The tests were performed in triplicate, and the percentage of DPPH scavenging was calculated using the following equation. Inhibition%=H0-H/H0×100 H:Absorbance of RFCS and the standards;H0:Absorbance of the blank

The test system of experiment [2] is Propionibacterium acnes (ATCC 6919). As to the kind of experiment: MIC and MBC, broth microdilution. The format is cell-based. The following applies: Cutibacterium acnes, ATCC6919, P. acnes; for MIC: anaerobic, 37 °C, 48 h, read-out: MIC; for MBC: read-out: MBC. Here is the method:
(§1) The antimicrobial activity was measured by the method described by Xue. All standard strains were obtained from the Guangdong Microbiology Culture Center (Guangzhou, China). Listeria ivanovii (ATCC 19119) was cultured in BHI, Salmonella enteritidis enteritidis (ATCC 14028) Staphylococcus aureus (ATCC 25923) and Escherichia coli (ATCC 25922) were cultured in nutrient agar (NA) for 24 h and at 37 °C. candida albicans (ATCC 10231) was cultured in PHB at 37 °C for 24 h. Propionibacterium acnes (ATCC 6919) and Fusobacterium nucleatum (ATCC 10953) were cultured in CDC agar at 37 °C for 48 h in a YQX-II anaerobic incubator (Shanghai, China). The final cell counts in l mL of broth were approximately 10^6 colony-forming units (CFU/mL). A 10 mg/mL solution of miconazole nitrate and hydrochloride tetracycline in water was used as a positive control against fungi and bacteria, respectly.
(§2) The MIC and MBC or MFC values were determined as described previously by Xue. Briefly, 100 μL dilutions (approximately 100,000 CFU/mL) of Staphylococcus aureus, Escherichia coli, Salmonella enteritidis enteritidis, Fusobacterium nucleatum, and Candida albicans in nutrient broth and Listeria ivanovii and Propionibacterium acnes in GMA broth were inoculated into microtiter plates. Then, 100 μL aliquots of the solutions of the test compound were added after a two-fold serial dilution with nutrient broth (from 2 mg/mL to 3 μg/mL). Broths with 5% (v/v) DMSO were used as controls. The petri dishes were incubated at 37 °C for 24 h with the exception of Propionibacterium acnes and Fusobacterium nucleatum, which were incubated at 37 °C for 48 h. The MIC was recorded as the lowest concentration of sample showing no detectable growth. To determine the MBC or MFC values for no bacterial or fungus growth, 10 μL of sub-inhibitory concentrations of the test compounds were incubated on CDC or GMA agar plates for 24 or 48 h. Every determination was carried out in triplicate.

For experiment [3], the system named is Fusobacterium nucleatum (ATCC 10953). The experiment in a line: MIC and MBC, broth microdilution. As to conditions: Fusobacterium nucleatum, ATCC10953, F. nucleatum; for MIC: anaerobic, 37 °C, 48 h, read-out: MIC; for MBC: read-out: MBC. It is filed as cell-based. Here is the method:
as §1, §2

For experiment [4], the system named is Staphylococcus aureus (ATCC 25923). The experiment in a line: MIC and MBC, broth microdilution. It is filed as cell-based. The following applies: Staphylococcus aureus, ATCC25923, S. aureus; for MIC: 37 °C, 24 h, read-out: MIC; for MBC: read-out: MBC. Here is the method: as §1, §2
The test system of experiment [5] is Listeria ivanovii (ATCC 19119). As to the kind of experiment: MIC and MBC, broth microdilution. The following applies: Listeria ivanovii, ATCC19119, L. ivanovii; for MIC: 37 °C, 24 h, read-out: MIC; for MBC: read-out: MBC. The format is cell-based. Here is the method:
as §1, §2

The test system of experiment [6] is Escherichia coli (ATCC 25922). As to the kind of experiment: MIC and MBC, broth microdilution. The format is cell-based. As to conditions: Escherichia coli, ATCC25922, E. coli; for MIC: 37 °C, 24 h, read-out: MIC; for MBC: read-out: MBC. Here is the method: as §1, §2
Experiment [7] concerns Salmonella enteritidis enteritidis (ATCC 14028). As to the kind of experiment: MIC and MBC, broth microdilution. The format is cell-based. The following applies: Salmonella enterica, S. enteritidis enteritidis; for MIC: 37 °C, 24 h, read-out: MIC; for MBC: read-out: MBC. Here is the method:
as §1, §2

The next experiment deals with mushroom tyrosinase. As to the kind of experiment: Tyrosinase inhibitory activity (spectrophotometric, DOPA substrate). The following applies: pH 6.8, 37 °C, 15 min, positive control = kojic acid. The format is biochemical. Here is the method:
The reaction mixture was vortexed and maintained at 37 °C for 15 min, and then the absorption maximum of dopachrome (set at 479 nm) was measured using a microplate reader (Molecular Devices, Sunnyvale, California, USA). The tests were performed in triplicate, and the value of tyrosinase inhibition activity was calculated as described above.

The next experiment is described as follows: ABTS radical scavenging. As to conditions: 30 °C, 30 min; positive control = Trolox. How it is done: The ABTS assay of RFCS was performed according to a modified version of a previously reported method. Briefly, the stock solutions were generated by mixing equal quantities of 7.4 mM ABTS^●+ solution and 2.6 mM potassium persulfate solution, and the mixture was incubated at room temperature for 12 h in the dark. Then, the solution was equilibrated with 1 mL of ABTS^●+ solution with 50% ethanol serving as a positive control. The absorbance of the solution at 734 nm was 1.17 ± 0.02 units. […] The mixture was mixed vigorously and incubated at 30 °C for 30 min. The absorbance was then measured at […] using the spectrophotometer. […] Inhibition%=Absorbance of blank-Absorbance of sample/Absorbance of blank×100

Experiment [8] deals with candida albicans (ATCC 10231). The experiment in a line: MIC and MFC, broth microdilution. The format is cell-based. As to conditions: Candida albicans, ATCC10231, C. albicans; for MIC: 37 °C, 24 h, read-out: MIC; for MFC: read-out: MFC. Here is the method:
as §1, §2

Consider `CC(C)=CCC[C@](C)(O)[C@@H]1CC=C(C)CC1` [α-bisabolol], for which the “DPPH radical scavenging activity IC50” value in experiment [1] was > 10,000 a μg/mL. The minimum inhibitory concentration (MIC) was 125 µg/mL (≈ 562 µM) in experiment [2]; 8 µg/mL (≈ 36 µM) in experiment [3]; 250 µg/mL (≈ 1120 µM) in experiment [4]; 8 µg/mL (≈ 36 µM) in experiment [5]; 500 µg/mL (≈ 2250 µM) in [6]; 500 µg/mL (≈ 2250 µM) in [7]. Besides, the minimal inhibitory concentration (MIC) in experiment [8] is 1000 µg/mL (≈ 4500 µM). For the same compound, the MBC in experiment [2] was 500 µg/mL (≈ 2250 µM); in experiment [3] it was 32 µg/mL (≈ 144 µM); in [4] it was 1000 µg/mL (≈ 4500 µM); in experiment [5] it was 32 µg/mL (≈ 144 µM); in [6] it was 1000 µg/mL (≈ 4500 µM); in experiment [7] it was over 1000 µg/mL. Besides, at mushroom tyrosinase, the “Tyrosinase inhibition IC50” value came to 635 ± 22 a μg/mL. In addition, in the experiment “ABTS radical scavenging”, the “ABTS radical scavenging activity IC50” value is given as > 10,000 a μg/mL. Further, the minimal fungicidal concentration (MFC) in experiment [8] is over 1000 µg/mL.

In the case of `OCCc1ccccc1` [Phenylethyl alcohol], the “DPPH radical scavenging activity IC50” value in [1] is given as > 10,000 a μg/mL. In addition, the MIC came out at 125 µg/mL (≈ 1020 µM) in [2]; 8 µg/mL (≈ 65.5 µM) in [3]; 125 µg/mL (≈ 1020 µM) in experiment [4]; 250 µg/mL (≈ 2050 µM) in [5]; 250 µg/mL (≈ 2050 µM) in experiment [6]; 125 µg/mL (≈ 1020 µM) in experiment [7]. In addition, in experiment [8], the MIC was 250 µg/mL (≈ 2050 µM). Also, the minimum bactericidal concentration (MBC) stood at 500 µg/mL (≈ 4090 µM) in experiment [2]; 32 µg/mL (≈ 262 µM) in [3]; 250 µg/mL (≈ 2050 µM) in experiment [4]; 500 µg/mL (≈ 4090 µM) in experiment [5]; 1000 µg/mL (≈ 8190 µM) in experiment [6]; 500 µg/mL (≈ 4090 µM) in experiment [7]. Besides, the “Tyrosinase inhibition IC50” value at mushroom tyrosinase worked out at 315 ± 13 b μg/mL. In addition, the “ABTS radical scavenging activity IC50” value in “ABTS radical scavenging” is > 10,000 a μg/mL. The MFC in [8] stood at 500 µg/mL (≈ 4090 µM).
